The supplement of paper PMC10307832

Experiments:
Assay in all cases: relative viability (nuclei count vs DMSO), 5 days (fraction); higher = more cells survive
[1] = compound: CC(C)C[C@H](NC(=O)[C@H](CCc1ccccc1)NC(=O)CN1CCOCC1)C(=O)N[C@@H](Cc1ccccc1)C(=O)N[C@@H](CC(C)C)C(=O)[C@@]1(C)CO1 [Carfilzomib] + O=C(CCCCCCC(=O)Nc1ccccc1)NO [Vorinostat] (partner 1 µM)
Summary of the method: (§1)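 Lung cancer cell lines were pin-tool dosed in 1536-well plates on the day after seeding, with either a lone drug or a fixed anchor-drug dose plus five library-drug doses (not always all listed) in √10 steps. Nuclei were counted on 4× images after 5 days. Relative viability is the ratio of treated-well to vehicle-well nuclei counts, with each value a median of duplicate plates.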

[2] = compound: C[C@@H](Oc1cc(-c2cnn(C3CCNCC3)c2)cnc1N)c1c(Cl)ccc(F)c1Cl [Crizotinib] + CS(=O)(=O)CCNCc1ccc(-c2ccc3ncnc(Nc4ccc(OCc5cccc(F)c5)c(Cl)c4)c3c2)o1 [Lapatinib] (partner 2 µM)
Summary of the method: as §1

[3] = compound: C[C@@H](Oc1cc(-c2cnn(C3CCNCC3)c2)cnc1N)c1c(Cl)ccc(F)c1Cl [Crizotinib] + NC(=O)Nc1cc(-c2cccc(F)c2)sc1C(=O)N[C@H]1CCCNC1 [AZD7762] (partner 0.2 µM)
Summary of the method: as §1

[4] = compound: O=C(c1cc(Cc2n[nH]c(=O)c3ccccc23)ccc1F)N1CCN(C(=O)C2CC2)CC1 [Olaparib] + C[C@@H](Oc1cc(-c2cnn(C3CCNCC3)c2)cnc1N)c1c(Cl)ccc(F)c1Cl [Crizotinib] (partner 1 µM)
Summary of the method: as §1

| Cell Line | relative viability ([1]; first compound 0.001 µM) | relative viability ([1]; first compound 0.003162 µM) | relative viability ([1]; first compound 0.01 µM) | relative viability ([1]; first compound 0.03162 µM) | relative viability ([1]; first compound 0.1 µM) | relative viability ([2]; first compound 0.03162 µM) | relative viability ([2]; first compound 0.1 µM) | relative viability ([2]; first compound 0.3162 µM) | relative viability ([2]; first compound 1 µM) | relative viability ([3]; first compound 0.01 µM) | relative viability ([3]; first compound 0.03162 µM) | relative viability ([3]; first compound 0.1 µM) | relative viability ([3]; first compound 0.3162 µM) | relative viability ([3]; first compound 1 µM) | relative viability ([4]; first compound 0.08 µM) | relative viability ([4]; first compound 0.253 µM) | relative viability ([4]; first compound 2.53 µM) | relative viability ([4]; first compound 8 µM) | relative viability ([2]; first compound 0.01 µM) |
| --- | --- | --- | --- | --- | --- | --- | --- | --- | --- | --- | --- | --- | --- | --- | --- | --- | --- | --- | --- |
| NCI-H647 | 0.69 | 0.483 | 0.137 | 0.0309 | 0.0228 | 1.1 | 1.23 | 0.792 | 1.07 | 0.444 | 0.626 | 0.403 | 0.394 | 0.595 | 1.23 | 0.914 | 0.923 | 0.675 | – |
| NCI-H650 | 0.354 | 0.468 | 0.532 | 0.132 | 0.107 | 0.788 | 0.909 | 0.803 | 0.891 | 1.03 | 0.979 | 0.815 | – | 0.945 | 0.899 | 0.713 | 0.623 | 0.615 | 0.833 |
| NCI-H727 | 0.999 | 1.14 | 1.45 | 1.01 | 0.651 | 0.749 | 1.15 | 0.729 | 0.888 | 0.566 | 0.568 | 0.567 | 0.433 | 0.661 | 0.934 | 0.737 | 0.671 | 0.48 | 0.837 |
| NCI-H838 | 0.922 | 0.774 | 0.719 | 0.199 | 0.152 | 1.22 | – | 0.996 | 0.987 | 0.975 | 0.919 | 0.969 | 0.9 | 0.974 | 0.882 | 0.774 | 0.779 | 0.742 | 0.689 |
| NCI-H1355 | 0.533 | 0.703 | 0.664 | 0.569 | 0.142 | 1.04 | 1.07 | 0.863 | 0.986 | 0.678 | 0.707 | 0.867 | 0.675 | 0.769 | 1.17 | 1.01 | 1.02 | 0.923 | – |
| NCI-H1437 | 0.834 | 0.895 | 1.14 | 0.435 | 0.206 | 0.839 | 0.816 | 0.711 | 0.928 | 1.03 | 1.13 | 1.09 | 1.13 | 1.09 | 1.07 | 0.814 | 0.903 | 0.618 | 0.768 |
| NCI-H1651 | 0.602 | 0.597 | 0.447 | 0.188 | 0.104 | 0.782 | 0.722 | 0.893 | 0.892 | 0.438 | 0.472 | 0.409 | 0.483 | 0.463 | 0.882 | 0.782 | 0.669 | 0.439 | 0.642 |
| NCI-H1666 | 0.972 | 0.933 | 1.15 | 1.03 | 0.599 | 0.678 | 0.587 | 0.657 | 0.682 | 0.78 | 0.899 | 0.828 | 0.825 | – | 1.09 | 0.777 | 0.685 | 0.602 | 0.618 |
| NCI-H1734 | 0.75 | 0.932 | 0.592 | 0.119 | 0.109 | 1.05 | 1 | – | 1.04 | 0.51 | 0.509 | 0.553 | – | 0.616 | 0.691 | 0.681 | 0.647 | 0.553 | 1.03 |
| NCI-H1755 | 0.806 | 0.793 | 0.664 | 0.464 | 0.383 | 1.04 | 1.07 | 0.938 | 1.03 | 0.407 | 0.423 | 0.539 | 0.411 | 0.455 | 0.957 | 0.824 | 0.904 | 0.728 | 1 |
| NCI-H1915 | 0.499 | 0.537 | 0.452 | 0.517 | 0.0617 | 0.95 | 1.01 | – | 0.969 | 0.66 | 0.682 | 0.739 | 0.694 | 0.704 | 0.934 | 0.774 | 0.552 | 0.445 | 0.902 |
| NCI-H1944 | 0.523 | 0.744 | 0.527 | 0.505 | 0.215 | 0.82 | 0.767 | 0.715 | 0.863 | 0.449 | 0.566 | 0.53 | 0.446 | 0.489 | 1.06 | 0.926 | 0.814 | 0.676 | 0.751 |
| NCI-H1975 | 0.706 | 0.611 | 0.261 | 0.129 | 0.135 | 1.01 | 0.971 | 0.798 | 0.869 | 0.641 | 0.784 | 0.771 | 0.684 | 0.636 | 1.04 | 0.906 | 0.945 | 0.916 | 0.719 |
| NCI-H1993 | 0.631 | 0.804 | 0.876 | 0.366 | 0.288 | 0.843 | 0.781 | 0.681 | 0.707 | 0.702 | 0.75 | – | 0.379 | 0.527 | 0.967 | 0.954 | 0.987 | 1.07 | 0.687 |
| NCI-H2085 | 0.71 | 0.879 | 0.497 | 0.222 | 0.3 | 0.899 | 0.785 | 0.709 | 0.715 | 0.961 | 1.01 | 0.986 | 0.737 | 1.02 | 0.911 | 0.657 | 0.74 | 0.77 | 0.724 |
| NCI-H2087 | 0.474 | 0.601 | 0.225 | 0.0585 | 0.0243 | 1.07 | 0.915 | 0.557 | 1.06 | 1.39 | 1.49 | 1.24 | 1.24 | 1.48 | 1.02 | 0.738 | 0.78 | 0.688 | 0.936 |
| NCI-H2126 | 0.748 | 0.868 | 0.904 | 0.716 | 0.222 | 0.763 | 0.765 | 0.763 | 0.727 | 0.928 | 1.09 | 1.02 | 0.903 | 1.04 | 1.12 | 0.967 | 0.957 | 0.969 | 0.701 |
